Data as given in US20090074815A1, “Immunomodulator Compounds as Vaccine Enhancers” (SCICLONE PHARMACEUTICALS, INC., priority 2005, published 2009).
Where two headings read alike, the source gives them in different places.

System: IL-10 production by OvA-stimulated splenocytes
Test: OvA-stimulated production of IL-10 by splenocytes of OvA-immunized mice
Conditions: for activity at 0.01 mg/kg / activity at 0.0001 mg/kg / activity at 0.001 mg/kg: Mus musculus, Splenocyte, po
[1] = OvA/Alum, 0.1 μg/kg i/p, OvA 10 μg/ml
[2] = OvA/Alum, 0.1 μg/kg i/p, OvA 25 μg/ml
[3] = OvA/Alum, 0.1 μg/kg i/p, OvA 50 μg/ml
[4] = OvA/Alum, 0.1 μg/kg i/p, OvA 100 μg/ml
[5] = OvA/Alum, 1.0 μg/kg i/p, OvA 10 μg/ml
[6] = OvA/Alum, 1.0 μg/kg i/p, OvA 25 μg/ml
[7] = OvA/Alum, 1.0 μg/kg i/p, OvA 50 μg/ml
[8] = OvA/Alum, 1.0 μg/kg i/p, OvA 100 μg/ml
[9] = OvA/FA, 0.1 μg/kg i/p, OvA 10 μg/ml
[10] = OvA/FA, 0.1 μg/kg i/p, OvA 25 μg/ml
[11] = OvA/FA, 0.1 μg/kg i/p, OvA 50 μg/ml
[12] = OvA/FA, 0.1 μg/kg i/p, OvA 100 μg/ml
[13] = OvA/FA, 1.0 μg/kg i/p, OvA 10 μg/ml
[14] = OvA/FA, 1.0 μg/kg i/p, OvA 25 μg/ml
[15] = OvA/FA, 1.0 μg/kg i/p, OvA 50 μg/ml
[16] = OvA/FA, 1.0 μg/kg i/p, OvA 100 μg/ml

Protocol: The OvA was administered subcutaneously to the crest in a volume of 200 μl. Mice were immunized on day 1 with OvA in complete Freund's adjuvant (CFA; Sigma) and on day 15 with the antigen in incomplete Freund's adjuvant (IFA; Sigma). The immune response was analyzed on day 29. Mice were also immunized with 10 μg/mouse of OvA using Alum as an adjuvant.
Thymuses and spleens from mice of each treatment group were pooled, and then minced with scissors. The minced tissues were suspended in sterile PBS to form cell suspensions, filtered through a double gauze layer and centrifuged. Cells were washed twice with PBS, re-suspended in RPMI-1640 (Sigma) with 2.0 mM of L-glutamine, 50 μM of mercaptoethanol, and 10 μg/ml of gentamycin (complete medium); and cell counts were made. (The splenocyte suspension was washed with a 0.86% solution of NH4Cl to pre-lyse erthrocytes.)
Assessment of Mitogen- and Antigen-Induced Production of Cytokines: Thymic cells (1×10^6/well) in complete medium with 2% FCS were stimulated with ConA (0, 1, and 2 μg/ml). Splenocytes (1×10^6/well) in complete medium with 5% FCS were stimulated with ConA (0, 1, and 5 μg/ml) and with OvA (0-100 μg/ml). […] Supernatants from OvA-stimulated cultures were collected after 72 hours. Supernatants from both cultures were frozen, and kept at 20° C. Concentrations of IL-2, IL-4, IL-10, IL-12R40 and IFNγ in the supernatants were determined by solid-phase EIA with EIA Expansion Kits, available from BD Biosciences (formerly Pharmingen), in accordance with the manufacturer's instructions.

SMILES: N[C@H](CCC(=O)N[C@@H](Cc1c[nH]c2ccccc12)C(=O)O)C(=O)O [SCV-07, γ-D-glutamyl-L-tryptophan]
- activity at 0.01 mg/kg (read-out: Production of IL-10 by splenocytes, % (% of control), OvA/Alum, 10.0 μg/kg per os, OvA 50 μg/ml): 197%
- activity at 0.01 mg/kg (read-out: Production of IL-10 by splenocytes, % (% of control), OvA/Alum, 10.0 μg/kg per os, OvA 100 μg/ml): 218%
- activity at 0.0001 mg/kg (read-out: Production of IL-10 by splenocytes, % (% of control), OvA/FA, 0.1 μg/kg per os, OvA 0 μg/ml): 100%
- activity at 0.0001 mg/kg (read-out: Production of IL-10 by splenocytes, % (% of control), OvA/FA, 0.1 μg/kg per os, OvA 10 μg/ml): 136%
- activity at 0.0001 mg/kg (read-out: Production of IL-10 by splenocytes, % (% of control), OvA/FA, 0.1 μg/kg per os, OvA 25 μg/ml): 210%
- activity at 0.0001 mg/kg (read-out: Production of IL-10 by splenocytes, % (% of control), OvA/FA, 0.1 μg/kg per os, OvA 50 μg/ml): 248%
- activity at 0.0001 mg/kg (read-out: Production of IL-10 by splenocytes, % (% of control), OvA/FA, 0.1 μg/kg per os, OvA 100 μg/ml): 270%
- activity at 0.001 mg/kg (read-out: Production of IL-10 by splenocytes, % (% of control), OvA/FA, 1.0 μg/kg per os, OvA 0 μg/ml): 100%
- activity at 0.001 mg/kg (read-out: Production of IL-10 by splenocytes, % (% of control), OvA/FA, 1.0 μg/kg per os, OvA 10 μg/ml): 234%
- activity at 0.001 mg/kg (read-out: Production of IL-10 by splenocytes, % (% of control), OvA/FA, 1.0 μg/kg per os, OvA 25 μg/ml): 241%
- activity at 0.001 mg/kg (read-out: Production of IL-10 by splenocytes, % (% of control), OvA/FA, 1.0 μg/kg per os, OvA 50 μg/ml): 275%
- activity at 0.001 mg/kg (read-out: Production of IL-10 by splenocytes, % (% of control), OvA/FA, 1.0 μg/kg per os, OvA 100 μg/ml): 317%
- activity at 0.01 mg/kg (read-out: Production of IL-10 by splenocytes, % (% of control), OvA/FA, 10.0 μg/kg per os, OvA 0 μg/ml): 100%
- activity at 0.01 mg/kg (read-out: Production of IL-10 by splenocytes, % (% of control), OvA/FA, 10.0 μg/kg per os, OvA 10 μg/ml): 133%
- activity at 0.01 mg/kg (read-out: Production of IL-10 by splenocytes, % (% of control), OvA/FA, 10.0 μg/kg per os, OvA 25 μg/ml): 174%
- activity at 0.01 mg/kg (read-out: Production of IL-10 by splenocytes, % (% of control), OvA/FA, 10.0 μg/kg per os, OvA 50 μg/ml): 216%
- activity at 0.01 mg/kg (read-out: Production of IL-10 by splenocytes, % (% of control), OvA/FA, 10.0 μg/kg per os, OvA 100 μg/ml): 250%
- Production of IL-10 by splenocytes (OvA/Alum, 0.1 μg/kg i/p, OvA 0 μg/ml): 2177.8 pg/mL
- Production of IL-10 by splenocytes [1]: 1762.5 pg/mL
- Production of IL-10 by splenocytes, % (% of control) [1]: 80.9%
- Production of IL-10 by splenocytes [2]: 1946.1 pg/mL
- Production of IL-10 by splenocytes, % (% of control) [2]: 89.4%
- Production of IL-10 by splenocytes [3]: 1851.3 pg/mL
- Production of IL-10 by splenocytes, % (% of control) [3]: 85.0%
- Production of IL-10 by splenocytes [4]: 2189.5 pg/mL
- Production of IL-10 by splenocytes, % (% of control) [4]: 100.5%
- Production of IL-10 by splenocytes (OvA/Alum, 0.1 μg/kg per os, OvA 0 μg/ml): 1351.1 pg/mL
- Production of IL-10 by splenocytes (OvA/Alum, 0.1 μg/kg per os, OvA 10 μg/ml): 1587.9 pg/mL
- Production of IL-10 by splenocytes (OvA/Alum, 0.1 μg/kg per os, OvA 25 μg/ml): 1419.5 pg/mL
- Production of IL-10 by splenocytes (OvA/Alum, 0.1 μg/kg per os, OvA 50 μg/ml): 1783.6 pg/mL
- Production of IL-10 by splenocytes (OvA/Alum, 0.1 μg/kg per os, OvA 100 μg/ml): 1741.5 pg/mL
- Production of IL-10 by splenocytes (OvA/Alum, 1.0 μg/kg i/p, OvA 0 μg/ml): 2035.7 pg/mL
- Production of IL-10 by splenocytes [5]: 1758.9 pg/mL
- Production of IL-10 by splenocytes, % (% of control) [5]: 86.4%
- Production of IL-10 by splenocytes [6]: 1829.8 pg/mL
- Production of IL-10 by splenocytes, % (% of control) [6]: 89.9%
- Production of IL-10 by splenocytes [7]: 1584.7 pg/mL
- Production of IL-10 by splenocytes, % (% of control) [7]: 77.8%
- Production of IL-10 by splenocytes [8]: 1840.7 pg/mL
- Production of IL-10 by splenocytes, % (% of control) [8]: 90.4%
- Production of IL-10 by splenocytes (OvA/Alum, 1.0 μg/kg per os, OvA 0 μg/ml): 1741.5 pg/mL
- Production of IL-10 by splenocytes (OvA/Alum, 1.0 μg/kg per os, OvA 10 μg/ml): 2220.9 pg/mL
- Production of IL-10 by splenocytes (OvA/Alum, 1.0 μg/kg per os, OvA 25 μg/ml): 1957.2 pg/mL
- Production of IL-10 by splenocytes (OvA/Alum, 1.0 μg/kg per os, OvA 50 μg/ml): 1920.4 pg/mL
- Production of IL-10 by splenocytes (OvA/Alum, 1.0 μg/kg per os, OvA 100 μg/ml): 1898.4 pg/mL
- Production of IL-10 by splenocytes (OvA/Alum, 10.0 μg/kg per os, OvA 0 μg/ml): 816.4 pg/mL
- Production of IL-10 by splenocytes (OvA/Alum, 10.0 μg/kg per os, OvA 10 μg/ml): 1127.5 pg/mL
- Production of IL-10 by splenocytes (OvA/Alum, 10.0 μg/kg per os, OvA 25 μg/ml): 1272.5 pg/mL
- Production of IL-10 by splenocytes (OvA/Alum, 10.0 μg/kg per os, OvA 50 μg/ml): 1608.4 pg/mL
- Production of IL-10 by splenocytes (OvA/Alum, 10.0 μg/kg per os, OvA 100 μg/ml): 1780.1 pg/mL
- Production of IL-10 by splenocytes (OvA/FA, 0.1 μg/kg i/p, OvA 0 μg/ml): 785.1 pg/mL
- Production of IL-10 by splenocytes [9]: 989.4 pg/mL
- Production of IL-10 by splenocytes, % (% of control) [9]: 126.0%
- Production of IL-10 by splenocytes [10]: 1234.3 pg/mL
- Production of IL-10 by splenocytes, % (% of control) [10]: 157.2%
- Production of IL-10 by splenocytes [11]: 1194.2 pg/mL
- Production of IL-10 by splenocytes, % (% of control) [11]: 152.1%
- Production of IL-10 by splenocytes [12]: 1502.4 pg/mL
- Production of IL-10 by splenocytes, % (% of control) [12]: 191.4%
- Production of IL-10 by splenocytes (OvA/FA, 0.1 μg/kg per os, OvA 0 μg/ml): 702.5 pg/mL
- Production of IL-10 by splenocytes (OvA/FA, 0.1 μg/kg per os, OvA 10 μg/ml): 958.9 pg/mL
- Production of IL-10 by splenocytes (OvA/FA, 0.1 μg/kg per os, OvA 25 μg/ml): 1478.2 pg/mL
- Production of IL-10 by splenocytes (OvA/FA, 0.1 μg/kg per os, OvA 50 μg/ml): 1739.2 pg/mL
- Production of IL-10 by splenocytes (OvA/FA, 0.1 μg/kg per os, OvA 100 μg/ml): 1895.4 pg/mL
- Production of IL-10 by splenocytes (OvA/FA, 1.0 μg/kg i/p, OvA 0 μg/ml): 457.4 pg/mL
- Production of IL-10 by splenocytes [13]: 813.4 pg/mL
- Production of IL-10 by splenocytes, % (% of control) [13]: 177.8%
- Production of IL-10 by splenocytes [14]: 774.1 pg/mL
- Production of IL-10 by splenocytes, % (% of control) [14]: 169.2%
- Production of IL-10 by splenocytes [15]: 852.4 pg/mL
- Production of IL-10 by splenocytes, % (% of control) [15]: 186.4%
- Production of IL-10 by splenocytes [16]: 963.8 pg/mL
- Production of IL-10 by splenocytes, % (% of control) [16]: 210.7%
- Production of IL-10 by splenocytes (OvA/FA, 1.0 μg/kg per os, OvA 0 μg/ml): 407.6 pg/mL
- Production of IL-10 by splenocytes (OvA/FA, 1.0 μg/kg per os, OvA 10 μg/ml): 953.1 pg/mL
- Production of IL-10 by splenocytes (OvA/FA, 1.0 μg/kg per os, OvA 25 μg/ml): 984.1 pg/mL
- Production of IL-10 by splenocytes (OvA/FA, 1.0 μg/kg per os, OvA 50 μg/ml): 1120.7 pg/mL
- Production of IL-10 by splenocytes (OvA/FA, 1.0 μg/kg per os, OvA 100 μg/ml): 1292.2 pg/mL
- Production of IL-10 by splenocytes (OvA/FA, 10.0 μg/kg per os, OvA 0 μg/ml): 627.3 pg/mL
- Production of IL-10 by splenocytes (OvA/FA, 10.0 μg/kg per os, OvA 10 μg/ml): 831.6 pg/mL
- Production of IL-10 by splenocytes (OvA/FA, 10.0 μg/kg per os, OvA 25 μg/ml): 1092.7 pg/mL
- Production of IL-10 by splenocytes (OvA/FA, 10.0 μg/kg per os, OvA 50 μg/ml): 1356.1 pg/mL
- Production of IL-10 by splenocytes (OvA/FA, 10.0 μg/kg per os, OvA 100 μg/ml): 1569.3 pg/mL
